Assay results as given in patent EP4559908A1, “HETEROARYL DERIVATIVE COMPOUND AND USE THEREOF” (S2CBio Inc., priority 2022, dated 2024).
Like-named read-outs stand apart in the source and are kept apart here.

Target: T1, human ANO6 (variant 5) (Homo sapiens, UniProt Q4KMQ2)
T1 construct: expressed in transfected cells; host or cells: Fischer rat thyroid (FRT) cells
T1 sequence (Q4KMQ2 1-931 isoform Q4KMQ2-2): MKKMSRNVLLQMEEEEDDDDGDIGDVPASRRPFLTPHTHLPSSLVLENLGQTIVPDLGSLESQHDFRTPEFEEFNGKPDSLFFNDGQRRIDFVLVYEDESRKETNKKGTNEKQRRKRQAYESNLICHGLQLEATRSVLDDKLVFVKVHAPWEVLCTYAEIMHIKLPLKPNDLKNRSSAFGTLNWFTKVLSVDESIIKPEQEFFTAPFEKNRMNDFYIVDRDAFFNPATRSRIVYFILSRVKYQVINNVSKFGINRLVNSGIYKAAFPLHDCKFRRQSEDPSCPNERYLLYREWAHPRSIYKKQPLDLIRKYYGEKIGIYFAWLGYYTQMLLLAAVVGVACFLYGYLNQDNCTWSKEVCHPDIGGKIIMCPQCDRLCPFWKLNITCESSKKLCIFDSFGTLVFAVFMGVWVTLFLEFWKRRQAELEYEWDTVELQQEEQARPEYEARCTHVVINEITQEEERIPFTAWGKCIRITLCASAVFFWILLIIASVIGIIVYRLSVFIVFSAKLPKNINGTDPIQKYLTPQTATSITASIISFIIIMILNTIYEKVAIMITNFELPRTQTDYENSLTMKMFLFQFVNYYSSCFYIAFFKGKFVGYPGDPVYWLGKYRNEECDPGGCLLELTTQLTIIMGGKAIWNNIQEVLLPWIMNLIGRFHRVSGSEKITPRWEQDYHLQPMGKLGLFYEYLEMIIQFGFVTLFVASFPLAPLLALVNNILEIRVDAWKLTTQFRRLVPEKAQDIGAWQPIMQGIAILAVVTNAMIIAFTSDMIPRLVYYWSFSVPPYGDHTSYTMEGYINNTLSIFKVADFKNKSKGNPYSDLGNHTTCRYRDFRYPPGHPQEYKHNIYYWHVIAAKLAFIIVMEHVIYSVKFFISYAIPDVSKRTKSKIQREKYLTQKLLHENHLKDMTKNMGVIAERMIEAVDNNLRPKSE
Experiment: Lact C2 assay (measuring phosphatidylserine externalization scramblase function)
Assay type: cell-based
Details: FRT, FRT cells expressing human ANO6 (variant 5), ionomycin 10 µM, Lact-C2-GFP fluorescence, average of three tests; for inhibition at 0.05 µM: compound 50 nM, read-out: % Inhibition 50 nM
Outline: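 Cells were pretreated 10 min with compound (50 nM, 100 nM, 1 µM; 1% DMSO), then given 10 µM ionomycin for 10 min. Surface phosphatidylserine was stained with 500 nM Lact-C2-GFP (10 min, 37 °C), fixed and imaged. Inhibition was scaled between untreated (100%) and ionomycin-alone (0%) wells.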

[1] = compound 1 µM, read-out: % Inhibition 1 µM

Compound | inhibition at 0.05 µM | inhibition at 1 µM [1] | inhibition at 1 µM (read-out: % Inhibition 1 µM, compound 1 µM)
FC(F)(F)Oc1cc2[nH]c(-c3cccc(Nc4ccc(-c5cccnn5)cc4)c3)nc2cn1 [Example 232, N-(4-(pyridazin-3-yl)phenyl)-3-(6-(trifluoromethoxy)-1H-imidazo[4,5-c]pyridin-2-yl)aniline] | > 60% | > 60% | –
FC(F)(F)c1cnc2nc(-c3cccc(Nc4ccc(-c5cccnn5)cc4)c3)[nH]c2c1 [Example 234, N-(4-(pyridazin-3-yl)phenyl)-3-(6-(trifluoromethyl)-1H-imidazo[4,5-b]pyridin-2-yl)aniline] | 30 to 60% | > 60% | –
FC(F)(F)c1ccc2[nH]c(-c3cccc(Nc4ccc(-c5cccnn5)cc4)c3)nc2n1 [Example 235, N-(4-(pyridazin-3-yl)phenyl)-3-(5-(trifluoromethyl)-1H-imidazo[4,5-b]pyridin-2-yl)aniline] | 30 to 60% | > 60% | –
FC(F)(F)c1cc2[nH]c(-c3cccc(Nc4ccc(-c5ccccn5)cn4)c3)nc2cn1 [Example 238, N-(3-(6-(trifluoromethyl)-1H-imidazo [4,5-c]pyridin-2-yl)phenyl)-[2,3'-bipyridin]-6'-amine] | > 60% | > 60% | –
FC(F)(F)c1cc2[nH]c(-c3cccc(Nc4ncc(-c5ccccn5)cn4)c3)nc2cn1 [Example 242, 5-(pyridin-2-yl)-N-(3-(6-(trifluoromethyl)-1H-imidazo[4,5-c]pyridin-2-yl)phenyl)pyrimidin-2-amine] | > 60% | > 60% | –
FC(F)(F)c1cnc2nc(-c3cccc(Nc4ncc(-c5ccccn5)cn4)c3)[nH]c2c1 [Example 243, 5-(pyridin-2-yl)-N-(3-(6-(trifluoromethyl)-1H-imidazo[4,5-b]pyridin-2-yl)phenyl)pyrimidin-2-amine] | 30 to 60% | > 60% | –
FC(F)(F)c1ccc2[nH]c(-c3cccc(Nc4ncc(-c5ccccn5)cn4)c3)nc2n1 [Example 244, 5-(pyridin-2-yl)-N-(3-(5-(trifluoromethyl)-1H-imidazo[4,5-b]pyridin-2-yl)phenyl)pyrimidin-2-amine] | 30 to 60% | > 60% | –
Fc1ccc2nc(-c3cccc(Nc4ncc(-c5ncccn5)cn4)c3)[nH]c2c1 [Example 247, N-(3-(6-fluoro-1H-benzo[d]imidazol-2-yl)phenyl)-[2,5'-bipyrimidin]-2'-amine] | – | 30 to 60% | –
Fc1cccnc1-c1ccc(Nc2cccc(-c3nc4ccc(C(F)(F)F)cc4[nH]3)c2)cc1 [Example 251, N-(4-(3-fluoropyridin-2-yl)phenyl)-3-(6-(trifluoromethyl)-1H-benzo[d]imidazol-2-yl)aniline] | – | > 60% | –
Fc1cccc(-c2ccc(Nc3cccc(-c4nc5ccc(C(F)(F)F)cc5[nH]4)c3)cc2)n1 [Example 252, N-(4-(6-fluoropyridin-2-yl)phenyl)-3-(6-(trifluoromethyl)-1H-benzo[d]imidazol-2-yl)aniline] | > 60% | > 60% | –
Fc1ccc(-c2ccc(Nc3cccc(-c4nc5ccc(C(F)(F)F)cc5[nH]4)c3)cc2)nc1 [Example 253, N-(4-(5-fluoropyridin-2-yl)phenyl)-3-(6-(trifluoromethyl)-1H-benzo[d]imidazol-2-yl)aniline] | > 60% | > 60% | –
FC(F)(F)c1cc2[nH]c(-c3cccc(Nc4ccc(-c5cccnn5)cn4)c3)nc2cn1 [Example 254, 5-(pyridazin-3-yl)-N-(3-(6-(trifluoromethyl)-1H-imidazo[4,5-c]pyridin-2-yl)phenyl)pyridin-2-amine] | > 60% | > 60% | –
c1ccc(-c2ccc(Nc3cccc(-c4nc5ccccc5[nH]4)c3)nn2)nc1 [Example 255, N-(3-(1H-benzo[d]imidazol-2-yl)phenyl)-6-(pyridin-2-yl)pyrimidin-3-amine] | – | – | > 60%
FC(F)(F)c1ccc2nc(-c3cccc(Nc4ccc(-c5ccccn5)nn4)c3)[nH]c2c1 [Example 256, 6-(pyridin-2-yl)-N-(3-(6-(trifluoromethyl)-1H-benzo[d]imidazol-2-yl)phenyl)pyridazin-3-amine] | – | > 60% | –
c1cc(Nc2ccc(-c3ccncn3)nn2)cc(-c2nc3ccccc3[nH]2)c1 [Example 257, N-(3-(1H-benzo[d]imidazol-2-yl)phenyl)-6-(pyrimidin-4-yl)pyridazin-3-amine] | – | 30 to 60% | –
Fc1cccc(-c2cnc(Nc3cccc(-c4nc5ccc(C(F)(F)F)cc5[nH]4)c3)nc2)n1 [Example 258, 5-(6-fluoropyridin-2-yl)-N-(3-(6-(trifluoromethyl)-1H-benzo[d]imidazol-2-yl)phenyl)pyrimidin-2-amine] | > 60% | > 60% | –
Fc1cccc(-c2cnc(Nc3cccc(-c4nc5ccccc5[nH]4)c3)nc2)n1 [Example 259, N-(3-(1H-benzo[d]imidazol-2-yl)phenyl)-5-(6-fluoropyridin-2-yl) pyrimidin-2-amine] | 30 to 60% | > 60% | –
Fc1ccc(-c2cnc(Nc3cccc(-c4nc5ccc(C(F)(F)F)cc5[nH]4)c3)nc2)nc1 [Example 260, 5-(5-fluoropyridin-2-yl)-N-(3-(6-(trifluoromethyl)-1H-benzo[d]imidazol-2-yl)phenyl)pyrimidin-2-amine] | 30 to 60% | > 60% | –
FC(F)(F)c1ccc2nc(-c3ccnc(Nc4ccc(-c5cccnn5)cc4)c3)[nH]c2c1 [Example 261, N-(4-(pyridazin-3-yl)phenyl)-4-(6-(trifluoromethyl)-1H-benzo[d]imidazol-2-yl) pyridin-2-amine] | 30 to 60% | > 60% | –
FC(F)(F)c1ccc2nc(-c3cncc(Nc4ccc(-c5cccnn5)cc4)c3)[nH]c2c1 [Example 262, N-(4-(pyridazin-3-yl)phenyl)-5-(6-(trifluoromethyl)-1H-benzo[d]imidazol-2-yl)pyridin-3-amine] | > 60% | – | –
FC(F)(F)c1ccc2nc(-c3cc(Nc4ccc(-c5cccnn5)cc4)ccn3)[nH]c2c1 [Example 263, N-(4-(pyridazin-3-yl)phenyl)-2-(6-(trifluoromethyl)-1H-benzo[d]imidazol-2-yl)pyridin-4-amine] | – | 30 to 60% | –
Fc1ccc(-c2ccc(Nc3cccc(-c4nc5ccc(C(F)(F)F)cc5[nH]4)c3)cc2)nn1 [Example 264, N-(4-(6-fluoropyridazin-3-yl)phenyl)-3-(6-(trifluoromethyl)-1H-benzo[d]imidazol-2-yl) aniline] | > 60% | – | –
Fc1ccc(-c2ccc(Nc3cccc(-c4nc5ccccc5[nH]4)c3)cc2)nn1 [Example 265, 3-(1H-benzo[d]imidazol-2-yl)-N-(4-(6-fluoropyridazin-3-yl)phenyl)aniline] | > 60% | – | –
Fc1cc(-c2cccnn2)ccc1Nc1cccc(-c2nc3ccccc3[nH]2)c1 [Example 269, N-(3-(1H-benzo[d]imidazol-2-yl)phenyl)-2-fluoro-4-(pyridazin-3-yl)aniline] | 30 to 60% | > 60% | –
Fc1cc(Nc2cccc(-c3nc4ccccc4[nH]3)c2)ccc1-c1cccnn1 [Example 270, N-(3-(1H-benzo[d]imidazol-2-yl)phenyl)-3-fluoro-4-(pyridazin-3-yl)aniline] | > 60% | – | –
c1ccc(-c2cnc(Nc3cccc(-c4nc5ccccc5[nH]4)c3)nn2)cc1 [Example 271, N-(3-(1H-benzo[d]imidazol-2-yl)phenyl)-6-phenyl-1,2,4-triazin-3-amine] | – | 30 to 60% | –
FC(F)(F)c1ccccc1-c1ccc(Nc2cccc(-c3nc4ccccc4[nH]3)c2)cc1 [Example 272, N-(3-(1H-benzo[d]imidazol-2-yl)phenyl)-2'-(trifluoromethyl)-[1,1'-biphenyl]-4-amine] | – | > 60% | –
COc1ccc(-c2ccc(Nc3cccc(-c4nc5ccccc5[nH]4)c3)cc2)nn1 [Example 275, 3-(1H-benzo[d]imidazol-2-yl)-N-(4-(6-methoxypyridazin-3-yl)phenyl)aniline] | – | > 60% | –
c1ccc(-c2cnc(Nc3cccc(-c4nc5ccccc5[nH]4)c3)cn2)nc1 [Example 276, N-(3-(1H-benzo[d]imidazol-2-yl)phenyl)-5-(pyridin-2-yl)pyrazin-2-amine] | > 60% | – | –
